These results are taken from PubChem BioAssay (NCI).

Assay in all cases: NCI tumour cell line growth inhibition, 48 h
Test [1] relates to HCT-15 colon.
The subject of test [2] is A549 NSCLC.
Test [3] deals with OVCAR-8 ovarian.
In test [4] the test system is HOP-62 NSCLC.
Test [5] deals with COLO 205 colon.
In test [6] the test system is SK-MEL-2 melanoma.
The subject of test [7] is 786-0 renal.
The test system of test [8] is U251 CNS.
Test [9] has as its system HS 578T breast.

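96-well plates; 48 h exposure; 5 concentrations. Endpoints by linear interpolation between flanking doses. Not reached: highest tested concentration assigned. Here, GI50 denotes the concentration required for 50% inhibition of growth. TGI: concentration producing complete growth inhibition.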

For the molecule `C=C=C(C(=O)OC)S(=O)c1ccccc1[N+](=O)[O-]` (stereo not drawn), the TGI in test [1], in test [2], in test [3], in test [4], in [5] and in test [6] was more than 100 µM each time. In addition, the TGI in test [7] and in [8] was more than 100 µM each time.

For `COc1cccc2ccc(C(=O)c3ccccc3)nc12`, the TGI in [1], in test [2], in test [3], in test [4], in test [5] and in test [6] was more than 100 µM throughout. For the same molecule, the TGI in [7] and in test [8] was more than 100 µM each time.

As for `COc1ccc2c(c1)[n+]([O-])c(-c1ccc([N+](=O)[O-])cc1)c(N)[n+]2[O-]`, the TGI in test [2], in test [3], in [4], in test [5], in test [6] and in [7] was more than 100 µM each time. Also, the TGI in test [8] is more than 100 µM.

In the case of `CN1C(=O)CCC2[C@@H]3CC=C4C[C@@H](O)CC[C@]4(C)C3CC[C@@]21C` (stereo partly drawn), the TGI in test [1], in test [2], in test [3], in [4], in [6] and in test [7] was more than 100 µM in each case. The TGI in test [8] is more than 100 µM.

Take `CN(C)c1ccc(/C=C/C(=O)[O-])cc1.CN(C)c1ccc(/C=C/C(=O)[O-])cc1.[Cu+2]`: the TGI in test [1], in [2], in [3], in test [4], in test [5] and in [6] was more than 100 µM each time. Further, the TGI in test [7] and in test [8] was more than 100 µM throughout. Also, the GI50 in test [7] is 59.5 µM; in test [8], 37.2 µM.

Turning to `COC1OC(CO)C(O)C(OC(C)=O)C1NC(=O)N(CCCl)N=O` (stereo not drawn), the TGI in [2] is more than 100 µM; in [3] it was more than 100 µM; in test [5], more than 100 µM; in test [6] it was 8.75 µM; in test [7] it was more than 100 µM.

For `O=[N+]([O-])c1ccc(C2CC(c3ccccc3Cl)=Nc3ccccc3S2)cc1` (stereo not drawn), the TGI was 10.9 µM in test [1]; 33.4 µM in test [2]; 5.59 µM in [3]; 68.2 µM in test [4]; more than 57.6 µM in [5]; 24.5 µM in [6]. Besides, the TGI in test [7] worked out at 12.3 µM; in [8], 12.2 µM.

In the case of `Cc1cc([N+](=O)[O-])ccc1Sc1c2ccccc2nc2cc(Cl)ccc12`, the TGI in test [1] is more than 100 µM; in test [2], more than 100 µM; in [3] it was 57.3 µM; in [4] it was more than 100 µM; in test [5], more than 100 µM; in test [6], more than 100 µM. The TGI in [7] was more than 100 µM; in test [8], 80.7 µM.

As for `N#Cc1c(NC(=O)NCc2ccccc2)sc2c1CCCC2`, the GI50 was 0.443 µM in [1]; 0.731 µM in test [2]; 2.29 µM in [3]; 1.51 µM in test [4]; 0.593 µM in test [5]; 5.08 µM in test [6]. The GI50 in test [7] is 0.822 µM; in [9] it was 0.404 µM; in [8], 0.66 µM. Further, the TGI in test [1] was more than 100 µM; in [2] it was more than 100 µM; in test [3], more than 100 µM; in test [4], more than 74.8 µM; in [5], more than 28.9 µM; in test [6], more than 100 µM. Further, the TGI in test [7] is more than 100 µM; in [9] it was more than 100 µM; in [8], more than 81.7 µM.

Take `COc1ccc(OC(C)=O)c2c1CCC=CC2=O`: the TGI in test [1] turned out to be 30.1 µM; in test [2] it was 35.4 µM; in test [3] it was 31.4 µM; in [4] it was 28 µM; in test [5] it was 23 µM; in test [6], 33.7 µM. In addition, the TGI in test [7] is 32.5 µM; in test [8], 32.2 µM.

For `Nc1c(-c2cn(Cc3ccccc3)c3ccccc23)[n+]([O-])c2ccccc2[n+]1[O-]`, the TGI is more than 100 µM in test [1]; more than 100 µM in test [2]; more than 100 µM in [3]; more than 100 µM in [5]; 57 µM in test [6]; more than 100 µM in test [7]. For the same molecule, the TGI in [8] was more than 100 µM.

On to `O=C1/C(=N\O)c2ccccc2S1(=O)=O`, for which the TGI is more than 100 µM in test [1]; more than 100 µM in test [2]; more than 100 µM in [3]; more than 100 µM in test [4]; 73.6 µM in [5]; more than 100 µM in test [6]. Also, the TGI in test [7] and in test [8] was more than 100 µM in each case.

For `C#CCNC(=O)N(CC#C)N=O`, the TGI in [1], in test [3], in [4], in test [6], in [7] and in test [8] was more than 100 µM each time.

As for `CCN(CC)CC(C)(C)C(=O)/C=C/c1cccc(/C=C/C(=O)C(C)(C)CN(CC)CC)c1`, the TGI worked out at 2.37 µM in test [1]; 2.67 µM in test [2]; 1.47 µM in test [3]; 5.14 µM in test [4]; 0.821 µM in [5]; 1.87 µM in test [7]. The TGI in test [8] amounted to 0.686 µM.

Consider `CCOC(=O)C1SC(=Nc2cccc(Cl)c2C)N=C1C` (stereo not drawn), for which the TGI in test [1] was more than 10 µM; in test [2] it was 60.4 µM; in [3], 61.9 µM; in test [4], more than 100 µM; in test [5] it was 38.3 µM; in test [6] it was 37 µM. Also, the figures for the TGI in test [7] and in test [8] were 31.8 µM and 30.3 µM, respectively.
